Experimental findings from patent US20260158102A1, “CYCLIC PEPTIDE DERIVATIVE COMPOSITION FOR TREATING OR PREVENTING NEUROPATHIC PAIN AND/OR INFLAMMATORY PAIN” (DKS Co. Ltd., priority 2022, published 2026) are described below.

Each structure is given as a SMILES string.

This assay deals with rat carrageenan-induced paw edema model. In words: Mechanical hyperalgesia (Randall-Selitto pain threshold) in rat carrageenan-induced paw edema model. In kind it is in vivo. As to conditions: for Pain threshold (mmHg) 2 hour: 2 hours after carrageenan inflammation, control 31.6 ± 1.4. Here is the method: On the day before the administration of the phlogistic agent, the pain threshold of each individual by the Randall-Selitto method was measured using an Analgesy meter.
On the day before the use of the phlogistic agent, a required amount of carrageenan (Tokyo Chemical Industry Co., Ltd.) was weighed, ground using an agate mortar and pestle, and suspended while adding physiological saline little by little, thereby preparing a 1 w/v % carrageenan physiological saline solution. After preparation, the solution was stored in a refrigerator and used the next day.
The test substance was intravenously administered, and after 5 minutes, 0.1 mL of a phlogistic agent (1 w/v % carrageenan physiological saline solution) was subcutaneously administered to the right hind paw of the animal to induce inflammation.
2, 3, 4, and 5 hours after inflammation, the pain threshold was measured by the Randall-Selitto method using an Analgesy meter.
Dunnett's multiple comparison test was performed between the control group and the test substance group at each measurement time point.
Background: Carrageenan injected into the paw causes an acute inflammation.

As for `CC[C@@]1(C)Oc2cc(ccc2O)C[C@H](N(C)C)C(=O)N[C@@H](C(C)C)C(=O)N[C@@H]1C(=O)N[C@@H](CCC(=O)O)C(=O)O` [Compound 23], the “Pain threshold (mmHg) 2 hour” value reads like this: (1 mg/kg i.v., mean ± SE, N=7) 31.6 ± 2.2 mmHg; (5 mg/kg i.v., mean ± SE, N=7) 34.9 ± 1.7 mmHg; (25 mg/kg i.v., mean ± SE, N=7) 36.7 ± 2.4 mmHg. For the same compound, the “Pain threshold (mmHg) 4 hour” value (1 mg/kg i.v., 4 hours after carrageenan inflammation, mean ± SE, N=7, control 30.3 ± 0.7) was found to be 34.0 ± 1.3 mmHg. Besides, the “Pain threshold (mmHg) 5 hour” value (1 mg/kg i.v., 5 hours after carrageenan inflammation, mean ± SE, N=7, control 28.3 ± 1.9) came to 30.1 ± 1.0 mmHg. Further, the “Effect on inflammatory pain (pain threshold by the Randall-Selitto method)” value (rat carrageenan-induced paw edema model, i.v. 1-25 mg/kg, overall conclusion) is reported as “suppressing effect on inflammatory pain”.
